Measurements reported in patent US9266830B2, “Pesticidal arylpyrrolidines” (Bayer Intellectual Property GmbH, priority 2007, dated 2016).

system: Boophilus microplus; test: Boophilus microplus test (injection); type: in vivo; details: application rate 20 μg/animal, adult engorged females, after 7 days
Method: Solvent: dimethyl sulfoxide
To produce a suitable preparation of active compound, 10 mg of active compound are dissolved in 0.5 ml solvent, and the concentrate is diluted with solvent to the desired concentration. Five adult engorged female ticks (Boophilus microplus) are injected with compound solution into the abdomen. Ticks are transferred into replica plates and incubated in a climate chamber for a period of time. Egg deposition of fertile eggs is monitored. After 7 days mortality in % is determined 100% means that all eggs are infertile; 0% means that all eggs are fertile.

| Structure (SMILES) | activity (100% means that all eggs are infertile) [%] |
| --- | --- |
| NCc1ccc(N2CCC(c3cc(C(F)(F)F)cc(C(F)(F)F)c3)(C(F)(F)F)C2)cc1C(F)(F)F (stereo not shown) [1-295] | 100 |
| CC(=O)NCc1ccc(N2CCC(c3cc(C(F)(F)F)cc(C(F)(F)F)c3)(C(F)(F)F)C2)cc1[N+](=O)[O-] (stereo not shown) [1-317] | 100 |
| O=C(NCc1ccc(N2CCC(c3cc(Cl)cc(Cl)c3)(C(F)(F)F)C2)cc1C(F)(F)F)C1CCC1 (stereo not shown) [1-150] | 100 |
| O=C(NCc1ccccn1)NCc1ccc(N2CCC(c3cc(Cl)cc(Cl)c3)(C(F)(F)F)C2)cc1C(F)(F)F (stereo not shown) [1-254] | 100 |
| C#CCNC(=O)NCc1ccc(N2CCC(c3cc(Cl)cc(Cl)c3)(C(F)(F)F)C2)cc1Cl (stereo not shown) [1-88] | 100 |
| CCC(=O)NCc1ccc(N2CCC(c3cc(Cl)cc(Cl)c3)(C(F)(F)F)C2)cc1Br (stereo not shown) [1-285] | 100 |
| C=CCSCC(=O)NCc1ccc(N2CCC(c3cc(C(F)(F)F)cc(C(F)(F)F)c3)(C(F)(F)F)C2)cc1C(F)(F)F (stereo not shown) [1-969] | 100 |
| O=C(NCC(F)(F)F)c1sc(N2CCC(c3cc(C(F)(F)F)cc(C(F)(F)F)c3)(C(F)(F)F)C2)nc1C(F)(F)F (stereo not shown) [4-34] | 100 |
| O=C(NCc1ccccn1)c1sc(N2CCC(c3cc(Cl)c(Cl)c(Cl)c3)(C(F)(F)F)C2)nc1C(F)(F)F (stereo not shown) [4-22] | 100 |
| C=CCS(=O)(=O)CC(=O)NCc1ccc(N2CCC(c3cc(Cl)cc(Cl)c3)(C(F)(F)F)C2)cc1C(F)(F)F (stereo not shown) [1-505] | 100 |
| O=C(NCc1cnc(N2CCC(c3cc(Cl)c(Cl)c(Cl)c3)(C(F)(F)F)C2)nc1C(F)(F)F)C1CC1 (stereo not shown) [3-143] | 100 |
| CCNC(=O)NCc1cnc(N2CCC(c3cc(Cl)c(Cl)c(Cl)c3)(C(F)(F)F)C2)cc1C(F)(F)F (stereo not shown) [1-381] | 100 |
| O=C(NCC(F)(F)F)c1cnc(N2CCC(c3cc(C(F)(F)F)cc(C(F)(F)F)c3)(C(F)(F)F)C2)nc1C(F)(F)F (stereo not shown) [2-34] | 100 |
| O=C(CC(F)(F)F)NCc1cnc(N2CCC(c3cc(Cl)c(Cl)c(Cl)c3)(C(F)(F)F)C2)cc1C(F)(F)F (stereo not shown) [1-380] | 100 |
| C=CCC(=O)NCc1ccc(N2CCC(c3cc(Cl)cc(Cl)c3)(C(F)(F)F)C2)cc1C(F)(F)F (stereo not shown) [1-180] | 100 |
| O=C(NCc1sc(N2CCC(c3cc(Cl)c(Cl)c(Cl)c3)(C(F)(F)F)C2)nc1C(F)(F)F)C1CC1 (stereo not shown) [5-143] | 100 |
| O=C(NCc1ccc(N2CCC(c3cc(Cl)cc(Cl)c3)(C(F)(F)F)C2)cc1Cl)C1CC1(Cl)Cl (stereo not shown) [1-24] | 100 |
| CCS(=O)(=O)CC(=O)NCc1ccc(N2CCC(c3cc(Cl)cc(Cl)c3)(C(F)(F)F)C2)cc1C(F)(F)F (stereo not shown) [1-501] | 100 |
| CN(Cc1ccc(N2CCC(c3cc(Cl)cc(Cl)c3)(C(F)(F)F)C2)cc1Cl)C(=O)CC(F)(F)F (stereo not shown) [1-75] | 100 |
| O=C(CC1CC1)NCc1ccc(N2CCC(c3cc(Cl)cc(Cl)c3)(C(F)(F)F)C2)cc1Cl (stereo not shown) [1-12] | 100 |
| O=C(NCc1ccc(N2CCC(c3cc(Cl)cc(Cl)c3)(C(F)(F)F)C2)cc1C(F)(F)F)C1CC1 (stereo not shown) [1-146] | 100 |
| C=CCS(=O)(=O)CC(=O)NCc1ccc(N2CCC(c3cc(C(F)(F)F)cc(C(F)(F)F)c3)(C(F)(F)F)C2)cc1C(F)(F)F (stereo not shown) [1-971] | 100 |
| CC(C)C(=O)NCc1ccc(N2CCC(c3cc(Cl)c(Cl)c(Cl)c3)(C(F)(F)F)C2)cc1C(F)(F)F (stereo not shown) [1-329] | 100 |

| Structure (SMILES) | activity (100% means that all eggs are infertile) [%] |
| --- | --- |
| O=C(NCc1ccc(N2CCC(c3cc(Cl)cc(Cl)c3)(C(F)(F)F)C2)cc1Cl)C1CCC1 (stereo not shown) [1-8] | 100 |
| O=C(CC(F)(F)F)NCc1cnc(N2CCC(c3cc(C(F)(F)F)cc(C(F)(F)F)c3)(C(F)(F)F)C2)cc1C(F)(F)F (stereo not shown) [1-386] | 100 |
| O=C(CC1CC1)NCc1ccc(N2CCC(c3cc(Cl)cc(Cl)c3)(C(F)(F)F)C2)cc1C(F)(F)F (stereo not shown) [1-155] | 100 |
| CC(=O)OCC(=O)NCc1ccc(N2CCC(c3cc(Cl)cc(Cl)c3)(C(F)(F)F)C2)cc1C(F)(F)F (stereo not shown) [1-188] | 100 |
| O=C(NCc1ccc(N2CCC(c3cc(Cl)cc(Cl)c3)(C(F)(F)F)C2)cc1Cl)C1CC1 (stereo not shown) [1-4] | 100 |
| O=C(CC(F)(F)F)NCc1ccc(N2CCC(c3cc(C(F)(F)F)cc(C(F)(F)F)c3)(C(F)(F)F)C2)cc1C(F)(F)F (stereo not shown) [1-296] | 100 |
| O=C(CC(F)(F)F)NCc1sc(N2CCC(c3cc(Cl)c(Cl)c(Cl)c3)(C(F)(F)F)C2)nc1C(F)(F)F (stereo not shown) [5-144] | 100 |
| C[S+]([O-])CC(=O)NCc1ccc(N2CCC(c3cc(Cl)c(Cl)c(Cl)c3)(C(F)(F)F)C2)cc1C(F)(F)F (stereo not shown) [1-729] | 100 |
| CC(=O)CC(=O)NCc1ccc(N2CCC(c3cc(C(F)(F)F)cc(C(F)(F)F)c3)(C(F)(F)F)C2)cc1C(F)(F)F (stereo not shown) [1-963] | 100 |
| COCC(=O)NCc1ccc(N2CCC(c3cc(Cl)cc(Cl)c3)(C(F)(F)F)C2)cc1Cl (stereo not shown) [1-40] | 100 |
| CS(=O)(=O)CC(=O)NCc1ccc(N2CCC(c3cc(Cl)cc(Cl)c3)(C(F)(F)F)C2)cc1C(F)(F)F (stereo not shown) [1-495] | 100 |
| CCC(=O)NCc1cnc(N2CCC(c3cc(C(F)(F)F)cc(C(F)(F)F)c3)(C(F)(F)F)C2)nc1C(F)(F)F (stereo not shown) [3-148] | 100 |
| CCC(=O)NC1CCc2cc(N3CCC(c4cc(Cl)cc(Cl)c4)(C(F)(F)F)C3)ccc21 (stereo not shown) [6-4] | 100 |
| CSCC(=O)NCc1ccc(N2CCC(c3cc(Cl)cc(Cl)c3)(C(F)(F)F)C2)cc1Cl (stereo not shown) [1-42] | 100 |
| CC(Br)C(=O)NCc1ccc(N2CCC(c3cc(Cl)cc(Cl)c3)(C(F)(F)F)C2)cc1Cl (stereo not shown) [1-458] | 100 |
| CCC(=O)NCc1ccc(N2CCC(c3cc(Cl)c(Cl)c(Cl)c3)(C(F)(F)F)C2)cc1Cl (stereo not shown) [1-338] | 100 |
| O=C(NCC(F)(F)F)c1sc(N2CCC(c3cc(Cl)cc(Cl)c3)(C(F)(F)F)C2)nc1C(F)(F)F (stereo not shown) [4-8] | 100 |
| C[S+]([O-])CC(=O)NCc1ccc(N2CCC(c3cc(C(F)(F)F)cc(C(F)(F)F)c3)(C(F)(F)F)C2)cc1C(F)(F)F (stereo not shown) [1-967] | 100 |
| CC(=O)NC1CCc2cc(N3CCC(c4cc(Cl)c(Cl)c(Cl)c4)(C(F)(F)F)C3)ccc21 (stereo not shown) [6-267] | 100 |
| O=C(CC(F)(F)F)NCc1cnc(N2CCC(c3cc(Cl)c(Cl)c(Cl)c3)(C(F)(F)F)C2)nc1C(F)(F)F (stereo not shown) [3-144] | 100 |
| O=C(NCc1ccc(N2CCC(c3cc(Cl)cc(Cl)c3)(C(F)(F)F)C2)cc1Cl)NC1CC1 (stereo not shown) [1-81] | 100 |
| C[S+]([O-])CC(=O)NCc1ccc(N2CCC(c3cc(Cl)cc(Cl)c3)(C(F)(F)F)C2)cc1C(F)(F)F (stereo not shown) [1-494] | 100 |
| O=C(CC(F)(F)F)NCc1ccc(N2CCC(c3cc(Cl)cc(Cl)c3)(C(F)(F)F)C2)cc1Cl (stereo not shown) [1-19] | 100 |
